Experimental data published in PMC7749613 (Journal of Cachexia, Sarcopenia and Muscle, 2020).
Where “and” joins values, the source holds several entries; their conditions need not be identical. Equal entries are not always repeated.

Assays:
[1] = target: T1, OCT2 (Homo sapiens, UniProt O15244); experiment: Cellular uptake in HEK293/OCT2‐transfected versus mock cells; assay type: in vitro ADME; conditions: OCT2, at 5.0 min
T1 construct: host or cells: HEK293
T1 sequence (O15244 1-555): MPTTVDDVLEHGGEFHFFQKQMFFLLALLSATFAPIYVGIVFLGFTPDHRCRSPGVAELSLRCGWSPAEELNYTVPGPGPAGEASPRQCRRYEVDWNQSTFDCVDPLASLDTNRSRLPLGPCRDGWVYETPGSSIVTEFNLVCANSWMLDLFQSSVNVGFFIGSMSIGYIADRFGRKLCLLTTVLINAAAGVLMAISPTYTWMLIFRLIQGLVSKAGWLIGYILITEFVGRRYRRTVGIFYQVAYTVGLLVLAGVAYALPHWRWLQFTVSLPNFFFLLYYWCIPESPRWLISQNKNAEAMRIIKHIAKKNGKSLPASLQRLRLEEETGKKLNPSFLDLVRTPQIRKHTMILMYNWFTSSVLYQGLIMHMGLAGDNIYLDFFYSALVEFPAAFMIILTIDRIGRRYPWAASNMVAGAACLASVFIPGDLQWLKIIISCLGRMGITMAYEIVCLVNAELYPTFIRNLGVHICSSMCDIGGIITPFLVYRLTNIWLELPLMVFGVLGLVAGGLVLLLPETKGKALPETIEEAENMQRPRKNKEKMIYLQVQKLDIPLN
Protocol: (§4) Cells were then washed three times × 1.0 mL each with pre‐warmed Hank's Balanced Salt Solution (HBSS) buffer. A 0.5 mL aliquot of uptake buffer [HBSS plus 10 mM 4‐(2‐hydroxyethyl)‐1‐piperazineethanesulfonic acid (HEPES), pH 7.4], containing the radiolabelled prototypical substrate and mannitol, was then incubated for various times up to 60 min to determine the optimal incubation time for subsequent experiments (i.e. time of sampling during linear uptake conditions). At the designated times, 1.0 mL of ice‐cold HBSS buffer was added to stop uptake after which the cells were rinsed three times with 1.0 mL with ice‐cold HBSS. Hyamine hydroxide (0.33 mL) was then added to each well to lyse the cells. The cells were transferred into a scintillation vial and mixed with 6.0 mL of cytosine scintillation cocktail. Radioactivity of the solubilized cells was determined with a dual‐channel liquid scintillation counter (Beckman LS 6000; Beckman Coulter Inc., Fullerton, CA) and the protein quantified by a bicinchoninic acid protein assay kit (Pierce Biotechnology; Rockford, IL).

[2] = target: T2, human P‐gp (ABCB1, MDR1) (Homo sapiens, UniProt P08183); experiment: Transepithelial transport of digoxin (±TCMCB07) in MDCKII/MDR1 cells; assay type: in vitro ADME; conditions: MDCKII/MDR1, digoxin alone
T2 construct: host or cells: MDCKII
T2 sequence (P08183 whole entry): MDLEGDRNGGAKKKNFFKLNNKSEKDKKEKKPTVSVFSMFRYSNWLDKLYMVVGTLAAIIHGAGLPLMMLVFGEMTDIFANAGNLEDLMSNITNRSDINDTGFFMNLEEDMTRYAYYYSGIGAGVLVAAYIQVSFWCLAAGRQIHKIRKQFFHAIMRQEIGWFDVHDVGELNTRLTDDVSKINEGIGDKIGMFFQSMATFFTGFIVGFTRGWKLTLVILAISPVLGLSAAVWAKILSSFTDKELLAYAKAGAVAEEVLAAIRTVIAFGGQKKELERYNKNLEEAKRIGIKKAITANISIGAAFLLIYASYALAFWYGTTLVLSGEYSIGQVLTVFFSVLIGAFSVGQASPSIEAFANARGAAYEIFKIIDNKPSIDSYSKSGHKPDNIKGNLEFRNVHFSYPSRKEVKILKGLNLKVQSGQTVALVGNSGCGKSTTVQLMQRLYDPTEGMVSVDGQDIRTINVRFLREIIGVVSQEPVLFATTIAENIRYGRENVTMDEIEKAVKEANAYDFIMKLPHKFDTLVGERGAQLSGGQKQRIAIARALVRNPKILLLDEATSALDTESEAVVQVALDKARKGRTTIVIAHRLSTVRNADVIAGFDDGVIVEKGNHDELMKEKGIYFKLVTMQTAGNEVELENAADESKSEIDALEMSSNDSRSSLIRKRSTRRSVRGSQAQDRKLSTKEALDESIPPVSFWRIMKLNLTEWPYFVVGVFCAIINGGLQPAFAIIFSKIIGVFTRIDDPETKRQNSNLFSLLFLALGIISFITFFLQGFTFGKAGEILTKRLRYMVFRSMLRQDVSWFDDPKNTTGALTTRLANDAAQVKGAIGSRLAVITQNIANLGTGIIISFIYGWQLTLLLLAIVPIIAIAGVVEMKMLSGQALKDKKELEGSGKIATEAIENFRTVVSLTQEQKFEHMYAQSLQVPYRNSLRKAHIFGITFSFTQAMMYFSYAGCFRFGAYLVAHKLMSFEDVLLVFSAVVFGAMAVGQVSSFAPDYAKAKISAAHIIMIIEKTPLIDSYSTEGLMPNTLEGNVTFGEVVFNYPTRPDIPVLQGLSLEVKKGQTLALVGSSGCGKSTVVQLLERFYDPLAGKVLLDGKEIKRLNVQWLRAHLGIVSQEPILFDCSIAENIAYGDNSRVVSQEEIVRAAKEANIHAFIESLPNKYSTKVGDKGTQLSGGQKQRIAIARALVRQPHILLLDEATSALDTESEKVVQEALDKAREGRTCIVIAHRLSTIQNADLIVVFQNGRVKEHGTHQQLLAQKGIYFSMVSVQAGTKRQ
Protocol: (§1) Cells were then washed three times, each with 0.5 mL pre‐warmed HBSS buffer. […] The cells were then incubated for various times up to 60 min. […] At the designated times, 15 μL of apical buffer and 50 μL of basolateral buffer were sampled. Once all the samples were collected, 0.5 mL of ice‐cold HBSS buffer was added to the well to stop transport after which the cells were rinsed three times with 0.5 mL of ice‐cold HBSS. The filters with monolayers were then detached from the chamber and placed in a scintillation vial, and the cells were lysed with 0.33 mL hyamine hydroxide.
(§2) The permeability of digoxin and rosuvastatin (prototypical substrates for MDR1 and BCRP, respectively) was determined by the following ^18 : (4) Papp=CR·VR/CD^o·A·∆Δt, where Papp is the apparent permeability, CR is the concentration of substrate in the receiver chamber, CD^o is the concentration of substrate in the donor chamber at time zero, VR is the volume of buffer in the receiver chamber, A is the surface area of the insert filter membrane, and ∆t is the time over which permeability is measured.

[3] = Transepithelial transport in MDCKII mock cells; assay type: in vitro ADME; conditions: dog, MDCK
Protocol: as §1, §2

[4] = In vivo mass balance study (urinary and faecal recovery) in mice
Protocol: Each mouse was then placed in a metabolic cage for 24 h, along with food and water, and the urine and faeces were collected. The metabolic cage was washed several times, after which 100 μL aliquots of diluted urine and faeces was placed in separate vials. Radioactivity measurements were then performed as described previously. All animal procedures were approved by the Institutional Animal Care and Use Committee at the University of Michigan, Ann Arbor.

[5] = target: T3, BCRP (ABCG2) (Homo sapiens, UniProt Q9UNQ0); experiment: Transepithelial transport of rosuvastatin (±TCMCB07) in MDCKII/BCRP cells; assay type: in vitro ADME; conditions: human, pH 7.4, MDCKII/BCRP, rosuvastatin alone
T3 construct: host or cells: MDCKII
T3 sequence (Q9UNQ0 1-655): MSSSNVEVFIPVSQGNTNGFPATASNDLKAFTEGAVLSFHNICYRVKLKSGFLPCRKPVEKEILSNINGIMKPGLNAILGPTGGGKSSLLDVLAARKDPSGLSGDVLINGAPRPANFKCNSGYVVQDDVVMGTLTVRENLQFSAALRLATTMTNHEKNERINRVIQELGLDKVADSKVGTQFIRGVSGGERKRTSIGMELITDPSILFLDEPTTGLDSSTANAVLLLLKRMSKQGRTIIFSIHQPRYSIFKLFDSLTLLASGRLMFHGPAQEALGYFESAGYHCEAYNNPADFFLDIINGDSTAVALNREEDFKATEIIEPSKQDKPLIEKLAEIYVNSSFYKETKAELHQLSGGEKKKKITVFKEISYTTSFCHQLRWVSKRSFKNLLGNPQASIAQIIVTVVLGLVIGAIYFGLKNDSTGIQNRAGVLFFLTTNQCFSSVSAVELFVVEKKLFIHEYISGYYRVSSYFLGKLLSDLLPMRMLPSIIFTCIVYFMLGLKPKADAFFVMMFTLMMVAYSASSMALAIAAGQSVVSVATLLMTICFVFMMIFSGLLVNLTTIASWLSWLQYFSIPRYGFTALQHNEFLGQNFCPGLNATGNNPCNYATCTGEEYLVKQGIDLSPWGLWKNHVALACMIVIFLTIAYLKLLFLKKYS
Protocol: as §1, §2
A similar analysis can be performed for rosuvastatin by substituting ERRos for ERDig and ERRos+T for ERDig+T in Eqn 6.

[6] = target: T4, OATP2B1 (Homo sapiens, UniProt O94956); experiment: Cellular uptake in HEK293/OATP2B1‐transfected versus mock cells; assay type: in vitro ADME; conditions: OATP2B1, at 1.5 min
T4 construct: host or cells: HEK293
T4 sequence (O94956 1-709): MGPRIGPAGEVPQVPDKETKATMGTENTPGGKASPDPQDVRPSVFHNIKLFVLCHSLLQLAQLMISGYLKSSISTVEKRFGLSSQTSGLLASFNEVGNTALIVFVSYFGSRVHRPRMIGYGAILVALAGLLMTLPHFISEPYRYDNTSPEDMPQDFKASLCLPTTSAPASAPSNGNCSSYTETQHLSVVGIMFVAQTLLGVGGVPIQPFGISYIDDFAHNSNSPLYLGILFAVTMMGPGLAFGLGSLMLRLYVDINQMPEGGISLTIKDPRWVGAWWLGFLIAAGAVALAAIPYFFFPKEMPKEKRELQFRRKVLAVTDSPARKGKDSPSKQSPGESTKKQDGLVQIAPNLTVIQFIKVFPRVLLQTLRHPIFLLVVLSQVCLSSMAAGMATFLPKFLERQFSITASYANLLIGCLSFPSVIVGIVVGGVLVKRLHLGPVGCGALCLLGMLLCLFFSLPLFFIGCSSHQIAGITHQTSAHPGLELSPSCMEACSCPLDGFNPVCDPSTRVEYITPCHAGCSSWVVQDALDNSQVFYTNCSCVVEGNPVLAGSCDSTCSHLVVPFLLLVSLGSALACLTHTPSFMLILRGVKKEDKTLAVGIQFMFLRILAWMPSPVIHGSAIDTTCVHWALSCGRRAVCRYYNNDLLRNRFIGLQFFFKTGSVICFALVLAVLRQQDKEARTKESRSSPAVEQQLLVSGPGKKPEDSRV
Protocol: as §4

[7] = target: T5, OAT3 (Homo sapiens, UniProt Q8TCC7); experiment: Cellular uptake in HEK293/OAT3‐transfected versus mock cells; assay type: in vitro ADME; conditions: OAT3, at 5.0 min
T5 construct: host or cells: HEK293
T5 sequence (Q8TCC7 1-542): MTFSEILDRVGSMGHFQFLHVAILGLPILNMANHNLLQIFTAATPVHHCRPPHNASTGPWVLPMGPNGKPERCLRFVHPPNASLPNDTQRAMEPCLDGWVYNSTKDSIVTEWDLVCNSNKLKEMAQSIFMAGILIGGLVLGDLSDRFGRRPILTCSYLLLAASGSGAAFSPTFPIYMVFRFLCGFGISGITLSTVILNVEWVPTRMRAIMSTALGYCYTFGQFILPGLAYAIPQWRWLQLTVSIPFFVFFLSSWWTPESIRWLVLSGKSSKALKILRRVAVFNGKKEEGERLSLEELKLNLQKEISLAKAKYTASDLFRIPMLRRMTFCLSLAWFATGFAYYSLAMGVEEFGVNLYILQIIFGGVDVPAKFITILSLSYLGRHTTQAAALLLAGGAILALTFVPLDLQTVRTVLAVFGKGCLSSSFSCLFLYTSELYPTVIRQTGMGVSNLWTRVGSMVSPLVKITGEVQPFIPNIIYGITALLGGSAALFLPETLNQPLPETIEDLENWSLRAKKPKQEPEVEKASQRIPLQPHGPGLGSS
Protocol: as §4

[8] = target: T6, MATE1 (Homo sapiens, UniProt Q96FL8); experiment: Cellular uptake in HEK293/MATE1‐transfected versus mock cells; assay type: in vitro ADME; design: host or cells: HEK293; conditions: MATE1, at 2.0 min
T6 sequence (Q96FL8 1-570): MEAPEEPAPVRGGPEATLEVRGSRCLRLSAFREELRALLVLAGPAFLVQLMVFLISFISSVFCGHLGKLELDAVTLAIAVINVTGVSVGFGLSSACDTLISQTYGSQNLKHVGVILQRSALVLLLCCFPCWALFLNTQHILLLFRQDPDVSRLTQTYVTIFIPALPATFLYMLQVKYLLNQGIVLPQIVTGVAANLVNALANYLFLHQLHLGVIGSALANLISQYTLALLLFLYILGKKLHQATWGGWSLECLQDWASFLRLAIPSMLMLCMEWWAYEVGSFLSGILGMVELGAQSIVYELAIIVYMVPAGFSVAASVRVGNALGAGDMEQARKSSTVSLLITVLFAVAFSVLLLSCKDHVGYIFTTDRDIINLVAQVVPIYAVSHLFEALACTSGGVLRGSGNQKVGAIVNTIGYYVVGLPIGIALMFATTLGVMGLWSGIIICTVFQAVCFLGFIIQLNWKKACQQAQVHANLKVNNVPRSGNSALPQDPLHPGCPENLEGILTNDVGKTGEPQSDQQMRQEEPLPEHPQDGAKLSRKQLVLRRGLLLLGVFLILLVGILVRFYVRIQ
Protocol: (§3) However, for these studies, a different incubation buffer was used (145 mM NaCl, 3 mM KCl, 1 mM CaCl2, 0.5 mM MgCl2, 5 mM glucose, and 5 mM HEPES, pH 7.4). ^13 Moreover, intracellular acidification was achieved by preincubating the cells in buffer containing 30 mM ammonium chloride for 20 min at 37°C. […] Radioactivity and protein measurements were performed as described previously.

[9] = target: MATE2‐K (Homo sapiens, UniProt Q86VL8); experiment: Cellular uptake in HEK293/MATE2‐K‐transfected versus mock cells; assay type: in vitro ADME; design: host or cells: HEK293; conditions: at 2.0 min
MATE2‐K, sequence (Q86VL8 1-566 isoform Q86VL8-3): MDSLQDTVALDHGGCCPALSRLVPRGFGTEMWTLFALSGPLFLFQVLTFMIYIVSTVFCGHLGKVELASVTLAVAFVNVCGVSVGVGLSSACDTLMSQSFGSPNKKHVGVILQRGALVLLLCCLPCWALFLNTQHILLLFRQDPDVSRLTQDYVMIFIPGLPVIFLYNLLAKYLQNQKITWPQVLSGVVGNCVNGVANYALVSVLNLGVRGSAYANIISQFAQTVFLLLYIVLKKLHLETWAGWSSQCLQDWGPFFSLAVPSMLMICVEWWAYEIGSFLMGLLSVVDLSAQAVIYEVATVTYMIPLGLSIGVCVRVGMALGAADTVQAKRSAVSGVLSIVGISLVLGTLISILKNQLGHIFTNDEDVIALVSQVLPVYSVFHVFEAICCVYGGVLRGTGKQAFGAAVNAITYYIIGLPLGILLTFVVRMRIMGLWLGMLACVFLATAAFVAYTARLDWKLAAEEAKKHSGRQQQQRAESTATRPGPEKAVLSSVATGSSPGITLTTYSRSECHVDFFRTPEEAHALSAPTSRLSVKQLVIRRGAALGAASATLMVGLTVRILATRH
Protocol: as §3

[10] = table values multiplied ×10^6, cm/s

C[n+]1ccc(-c2ccccc2)cc1 [1‐methyl‐4‐phenylpyridinium]
mean enhancement of uptake (transfected/mock) [1]: 373

C[C@H]1O[C@@H](O[C@H]2[C@@H](O)C[C@H](O[C@H]3[C@@H](O)C[C@H](O[C@H]4CC[C@@]5(C)[C@H](CC[C@@H]6[C@@H]5C[C@@H](O)[C@]5(C)[C@@H](C7=CC(=O)OC7)CC[C@]65O)C4)O[C@@H]3C)O[C@@H]2C)C[C@H](O)[C@@H]1O [Digoxin, digoxin]
Efflux ratio of digoxin, Papp B to A/Papp A to B [2]: 24.2 ± 7.3 | Papp (A to B) of digoxin [2, 10]: 1.1 ± 0.3 ×10^−6 cm/s | Papp (B to A) of digoxin [2, 10]: 22.4 ± 4.0 ×10^−6 cm/s | efflux ratio at 38 nM ([3]; pH 7.4, read-out: mean efflux ratio of digoxin): 4.5 | Papp A→B at 38 nM ([3]; pH 7.4, read-out: mean permeability of digoxin (A to B)): 63 nm/s | Papp B→A at 38 nM ([3]; pH 7.4, read-out: mean permeability of digoxin (B to A)): 208 nm/s

inulin
% Urinary recovery, intravenous inulin ([4]; individual mice, [3H]inulin iv bolus given with intravenous TCMCB07, 24 h collection): 104% and 93.2% and 95.1% | % Urinary recovery, intravenous inulin ([4]; individual mice, [3H]inulin iv bolus given with oral TCMCB07, 24 h collection (mouse 2: 48 h)): 106% and 100% and 107% | % Urinary recovery, intravenous inulin ([4]; mean of 3 mice, given with intravenous TCMCB07): 97.4% | % Urinary recovery, intravenous inulin ([4]; mean of 4 mice, given with oral TCMCB07): 105%

CC(C)c1nc(N(C)S(C)(=O)=O)nc(-c2ccc(F)cc2)c1/C=C/[C@@H](O)C[C@@H](O)CC(=O)O [Rosuvastatin, rosuvastatin]
efflux ratio at 21 nM ([5]; read-out: Efflux ratio of rosuvastatin, Papp B to A/Papp A to B): 7 ± 0.3 | Papp A→B at 21 nM [5, 10]: 110 ± 1 nm/s | Papp B→A at 21 nM [5, 10]: 768 ± 41 nm/s | efflux ratio at 21 nM ([3]; pH 7.4, read-out: mean efflux ratio of rosuvastatin): 3.1 | Papp A→B at 21 nM ([3]; pH 7.4, read-out: mean permeability of rosuvastatin (A to B)): 180 nm/s | Papp B→A at 21 nM ([3]; pH 7.4, read-out: mean permeability of rosuvastatin (B to A)): 550 nm/s

C[C@]12CC[C@@H]3c4ccc(OS(=O)(=O)O)cc4CC[C@H]3[C@@H]1CCC2=O [estrone 3‐sulfate]
mean enhancement of uptake (transfected/mock) [6]: 63.5 | mean enhancement of uptake (transfected/mock) [7]: 470

CC[N+](CC)(CC)CC [tetraethylammonium]
mean enhancement of uptake (transfected/mock) [8]: 122 | mean enhancement of uptake (transfected/mock) [9]: 46.7
